Test system: SUM149PT spheroids with HUVEC/MSC, viability
Test: Anticancer human tumor SUM149PT cell line growth inhibition [GQUAD];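 further: spheroids exposed to drugs for seven days before readout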;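 on viability, T/C: percent viability relative to DMSO vehicle control taken as 100%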
Details: for IC50: curve of first compound; for viability, T/C: stronger effect = lower value; active means viability on the fitted dose curve at most 10% of control; inactive means the rest
In short: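 Tumor cells were grown as complex spheroids with HUVEC endothelial cells and mesenchymal stem cells as stroma. G-quadruplex stabilizers were combined with targeted agents over half-log dilutions from near the clinical Cmax, or from 10 microM.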

[1] = second compound 0.0316 µM, first compound 0.0316 µM
[2] = second compound 0.0316 µM, first compound 0.316 µM
[3] = second compound 0.1 µM, first compound 0.0316 µM
[4] = second compound 0.1 µM, first compound 0.316 µM
[5] = second compound 0.316 µM, first compound 0.0316 µM
[6] = second compound 0.316 µM, first compound 0.316 µM
[7] = second compound 1 µM, first compound 0.0316 µM
[8] = second compound 1 µM, first compound 0.316 µM
[9] = second compound 3.16 µM, first compound 0.0316 µM
[10] = second compound 3.16 µM, first compound 0.316 µM
[11] = second compound 10 µM, first compound 0.0316 µM
[12] = second compound 10 µM, first compound 0.316 µM
[13] = second compound 0.0316 µM, first compound 0.1 µM
[14] = second compound 0.0316 µM, first compound 1 µM
[15] = second compound 0.0316 µM, first compound 3.16 µM
[16] = second compound 0.0316 µM, first compound 10 µM
[17] = second compound 0.1 µM, first compound 0.1 µM
[18] = second compound 0.1 µM, first compound 1 µM
[19] = second compound 0.1 µM, first compound 3.16 µM
[20] = second compound 0.1 µM, first compound 10 µM
[21] = second compound 0.316 µM, first compound 0.1 µM
[22] = second compound 0.316 µM, first compound 1 µM
[23] = second compound 0.316 µM, first compound 3.16 µM
[24] = second compound 0.316 µM, first compound 10 µM
[25] = second compound 1 µM, first compound 0.1 µM
[26] = second compound 1 µM, first compound 1 µM
[27] = second compound 1 µM, first compound 3.16 µM
[28] = second compound 1 µM, first compound 10 µM
[29] = second compound 3.16 µM, first compound 0.1 µM
[30] = second compound 3.16 µM, first compound 1 µM
[31] = second compound 3.16 µM, first compound 3.16 µM
[32] = second compound 3.16 µM, first compound 10 µM
[33] = second compound 10 µM, first compound 0.1 µM
[34] = second compound 10 µM, first compound 1 µM
[35] = second compound 10 µM, first compound 3.16 µM
[36] = second compound 10 µM, first compound 10 µM

CCc1c2c(nc3ccc(O)cc13)-c1cc3c(c(=O)n1C2)COC(=O)[C@]3(O)CC + Cc1cnc(CNC(=O)c2c(=O)c3ccc(N4CCCN(C)CC4)nc3n3c2sc2ccccc23)cn1
< 0.999 nM: IC50 (second compound 0.0316 µM) | IC50 (second compound 0.1 µM) | IC50 (second compound 0.316 µM) | IC50 (second compound 1 µM) | IC50 (second compound 3.16 µM) | IC50 (second compound 10 µM)
active: viability, T/C [8] 8.28% | viability, T/C [10] 3.55% | viability, T/C (second compound 10 µM, first compound 0.000999 µM) 0.16% | viability, T/C (second compound 10 µM, first compound 0.00316 µM) 3.09% | viability, T/C (second compound 10 µM, first compound 0.00999 µM) 0.98% | viability, T/C [11] 1.56% | viability, T/C (second compound 10 µM, first compound 0.0999 µM) 1.51% | viability, T/C [12] 1.72%
inactive: viability, T/C (second compound 0.0316 µM, first compound 0.000999 µM) 45% | viability, T/C (second compound 0.0316 µM, first compound 0.00316 µM) 30.6% | viability, T/C (second compound 0.0316 µM, first compound 0.00999 µM) 42.1% | viability, T/C [1] 30.6% | viability, T/C (second compound 0.0316 µM, first compound 0.0999 µM) 25.9% | viability, T/C [2] 12.1% | viability, T/C (second compound 0.1 µM, first compound 0.000999 µM) 38.9% | viability, T/C (second compound 0.1 µM, first compound 0.00316 µM) 40.9% | viability, T/C (second compound 0.1 µM, first compound 0.00999 µM) 44.6% | viability, T/C [3] 38.9% | viability, T/C (second compound 0.1 µM, first compound 0.0999 µM) 25.1% | viability, T/C [4] 10.2% | viability, T/C (second compound 0.316 µM, first compound 0.000999 µM) 38.7% | viability, T/C (second compound 0.316 µM, first compound 0.00316 µM) 42.8% | viability, T/C (second compound 0.316 µM, first compound 0.00999 µM) 41.1% | viability, T/C [5] 33.8% | viability, T/C (second compound 0.316 µM, first compound 0.0999 µM) 21.8% | viability, T/C [6] 10.8% | viability, T/C (second compound 1 µM, first compound 0.000999 µM) 37% | viability, T/C (second compound 1 µM, first compound 0.00316 µM) 41.2% | viability, T/C (second compound 1 µM, first compound 0.00999 µM) 37.1% | viability, T/C [7] 35.5% | viability, T/C (second compound 1 µM, first compound 0.0999 µM) 19.7% | viability, T/C (second compound 3.16 µM, first compound 0.000999 µM) 33.1% | viability, T/C (second compound 3.16 µM, first compound 0.00316 µM) 38.7% | viability, T/C (second compound 3.16 µM, first compound 0.00999 µM) 37.1% | viability, T/C [9] 31% | viability, T/C (second compound 3.16 µM, first compound 0.0999 µM) 21.9%

COc1cc(C2c3cc4c(cc3C(OC3OC5COC(C)OC5C(O)C3O)C3COC(=O)C23)OCO4)cc(OC)c1O (stereo unspecified) + Cc1cnc(CNC(=O)c2c(=O)c3ccc(N4CCCN(C)CC4)nc3n3c2sc2ccccc23)cn1
< 31.6 nM: IC50 (second compound 1 µM) | IC50 (second compound 3.16 µM) | IC50 (second compound 10 µM)
125 nM: IC50 (second compound 0.316 µM)
304 nM: IC50 (second compound 0.1 µM)
inactive: viability, T/C [1] 82.8% | viability, T/C [13] 59.1% | viability, T/C [2] 48.2% | viability, T/C [14] 45.8% | viability, T/C [15] 27.3% | viability, T/C [16] 13.3% | viability, T/C [3] 67.7% | viability, T/C [17] 52.1% | viability, T/C [4] 52.5% | viability, T/C [18] 42% | viability, T/C [19] 24% | viability, T/C [20] 11.5% | viability, T/C [5] 57.8% | viability, T/C [21] 47.4% | viability, T/C [6] 44.5% | viability, T/C [22] 40.1% | viability, T/C [23] 25.6% | viability, T/C [24] 12.4% | viability, T/C [7] 45.7% | viability, T/C [25] 45.9% | viability, T/C [8] 42.2% | viability, T/C [26] 39% | viability, T/C [27] 24.5% | viability, T/C [28] 13.4% | viability, T/C [9] 39.5% | viability, T/C [29] 38.1% | viability, T/C [10] 35.6% | viability, T/C [30] 39.6% | viability, T/C [31] 24.9% | viability, T/C [32] 14.3% | viability, T/C [11] 0.14% | viability, T/C [33] 12.2% | viability, T/C [12] 31.4% | viability, T/C [34] 19% | viability, T/C [35] 1.9% | viability, T/C [36] 3.26%
365 nM: IC50 (second compound 0.0316 µM)

COc1cccc2c1C(=O)c1c(O)c3c(c(O)c1C2=O)CC(O)(C(=O)CO)CC3OC1CC(N)C(O)C(C)O1 (stereo unspecified) + Cc1cnc(CNC(=O)c2c(=O)c3ccc(N4CCCN(C)CC4)nc3n3c2sc2ccccc23)cn1
active: viability, T/C [15] 1.37% | viability, T/C [16] 2.54% | viability, T/C [19] 1.96% | viability, T/C [20] 1.69% | viability, T/C [23] 2.74% | viability, T/C [24] 3.01% | viability, T/C [27] 0.7% | viability, T/C [28] 1.88% | viability, T/C [31] 1.22% | viability, T/C [32] 1.18% | viability, T/C [11] 0.13% | viability, T/C [33] 1.99% | viability, T/C [12] 15.3% | viability, T/C [34] 0.37% | viability, T/C [35] 0.4% | viability, T/C [36] 1.84%
97.9 nM: IC50 (second compound 0.1 µM)
112 nM: IC50 (second compound 0.0316 µM)
75.9 nM: IC50 (second compound 0.316 µM)
inactive: viability, T/C [1] 66.9% | viability, T/C [13] 48.3% | viability, T/C [2] 36.2% | viability, T/C [14] 13.1% | viability, T/C [3] 57.7% | viability, T/C [17] 47.1% | viability, T/C [4] 36.3% | viability, T/C [18] 15.2% | viability, T/C [5] 57.3% | viability, T/C [21] 45.9% | viability, T/C [6] 34.1% | viability, T/C [22] 16.2% | viability, T/C [7] 44.2% | viability, T/C [25] 43.7% | viability, T/C [8] 30.1% | viability, T/C [26] 15.9% | viability, T/C [9] 36.5% | viability, T/C [29] 35.7% | viability, T/C [10] 28.9% | viability, T/C [30] 13%
< 31.6 nM: IC50 (second compound 1 µM) | IC50 (second compound 3.16 µM) | IC50 (second compound 10 µM)

Reference: PubChem BioAssay AID2060484 (Molecular Pharmacology Branch, DTP, NCI, 2025)
